13 compounds from US20050282745A1, “Non-mammalian GnRH analogs and uses thereof in regulation of fertility and pregnancy” (priority 2001, published 2005) can be followed below.

Non-standard residues stand in square brackets, D forms with d. Residues, ends and D or L forms follow the SMILES beside them. *: point of attachment. dPhe(4-Cl) = N[C@H](Cc1ccc(Cl)cc1)C(=O)O; d2Nal = N[C@H](Cc1ccc2ccccc2c1)C(=O)O; Lys(iPr) = CC(C)NCCCC[C@H](N)C(=O)O; d3Pal = N[C@H](Cc1cccnc1)C(=O)O; pGlu = O=C1CC[C@@H](C(=O)O)N1; Nicotinoyl = O=C(c1cccnc1)*

Data set [1] deals with chorionic peptidase-1 (C-ase-1).
Data set [2] shares this test system. As to the kind of experiment: C-ase-1 enzyme activity assay, competition for degradation of GnRH. As to conditions: for relative potency of inhibition of C-ase-1 degradation of GnRH, compared to GnRH: Example V; for Ki: competition for degradation of mammalian GnRH.
Another data set relates to pregnant baboons. Kind of data set: Pregnant baboons, mini-pump days 14-21 post ovulation. It counts as in vivo, baboon. How it is done:
Mammalian GnRH analogs, ZOLADEX™ (Goserelin acetate) and Organon 30276, were administered to pregnant baboons via mini-pump on days 14 through 21 post ovulation. The hormonal release and pregnancy outcome was compared to saline treated controls. […] In a dose-response saline-controlled study using very high doses of mammalian GnRH analog, a small stimulation of hCG in very early pregnancy was observed by the present inventor.

Data set [3] concerns human placental GnRH receptor. Kind of data set: Placental GnRH receptor binding, 125I-Buserelin label. As to conditions: for receptor activity/potency compared with GnRH: 125I-Buserelin, Example VI. The method, then: The newly synthesized non-mammalian GnRH analogs and other commercially available mammalian GnRH analogs were used in placental receptors binding and enzyme stability study described here. […] GnRH receptors were purified from the membrane fractions from placentas. The purification procedure for the placental GnRH receptor was performed using a modification of the method described by Bramley et al., which reference is specifically incorporated herein by reference for the purpose. Addition of enzyme inhibitors for the endogenous C-ase-1 were used as well as agents for receptor stabilization. Initially, receptor-binding assays using ^125I-Buserelin as label were performed. The competitive binding of each of the analogs was studied over a dose range of 10^−11 to 10^−6 M. Incubation was at room temperature and receptor bound label was precipitated with polyethylene glycol. Specific and non-specific binding was determined. The data was subjected to Scatchard analysis. The non-mammalian GnRH analogs' ability to bind to the placental GnRH receptor was compared to that for synthetic mammalian GnRH (SEQ ID NO: 5), Buserelin (SEQ ID NO: 10) and other mammalian analogs. […] This way, the receptor affinity for that analog could be precisely determined. Receptors from three different term placentas were used to study each of these analogs. […] Bramley T A, McPhie C A, Menzies G S 1994 Human placental gonadotropin-releasing hormone (GnRH) binding sites: 111. […] Placenta 15:733-745.
In these and additional studies, placental GnRH receptors were purified from human term placentas after homogenization in 40 mM Tris (pH 7.4) and filtered through cheesecloth, followed by an initial centrifugation at 1,000×g for 10 minutes. The resulting supernatant was, again, centrifuged at 35,000×g for 30 minutes and the membrane pellet was collected and resuspended in Tris buffer with 0.3 M sucrose. The protein concentration was determined. Membranes were stored frozen at −20 C until use. Before use, placental membranes were diluted to 5,000 μg/mL with Tris buffer containing 0.5% BSA and 50 U/mL bacitracin. […] Following incubation at room temperature for 4 hours, the bound and free hormones were separated using polyethylene glycol precipitation, followed by centrifugation. The binding affinity for each GnRH isoform or analog was calculated using the double reciprocal plot of bound versus free ligand. Each study was done using three different human term placental tissues.
Receptor assays were performed by incubating human term placental GnRH receptors with varying concentrations of GnRH or its analogs in the presence of ^125I-Buserelin. The reaction was stopped and the bound hormone precipitated with polyethylene glycol.

The subject of another data set is placental homogenate. As to the kind of experiment: Degradation in whole placental homogenate. It counts as in vitro ADME, human. How it is done:
Studies using whole placental homogenate were also performed. […] The competition by the newly synthesized non-mammalian GnRH analogs as compared to mammalian GnRH (SEQ ID NO: 5) was then studied to confirm the C-ase-1 studies above. […] (FIG. 3)
The stability of these analogs in the present of whole placental homogenates was examined. The ethylamide derivative has a slowed degradation rate as compared to GnRH, but can be degraded.

Take `CC(=O)N[C@H](Cc1ccc2ccccc2c1)C(=O)N[C@H](Cc1ccc(Cl)cc1)C(=O)N[C@H](Cc1cccnc1)C(=O)N[C@@H](CO)C(=O)N[C@@H](CCCCNC(=O)c1cccnc1)C(=O)N[C@H](CCCCNC(=O)c1cccnc1)C(=O)N[C@@H](CC(C)C)C(=O)N[C@@H](CCCCNC(C)C)C(=O)N1CCC[C@H]1C(=O)N[C@H](C)C(N)=O` [Antide] (Ac-[d2Nal][dPhe(4-Cl)][d3Pal]SK(Nicotinoyl)[dK](Nicotinoyl)L[Lys(iPr)]P[dA]-NH2; N-terminus and C-terminus assumed): the “degradation by / competition for C-ase-1, in words” value (“degradation by / competition” below) in data set [1] is listed as “degraded with reduced activity”. Further, the “relative potency of inhibition of C-ase-1 degradation of GnRH, compared to GnRH” value (from here on “relative potency of inhibition … to GnRH”) in data set [2] stood at 0.6. In data set [2] (Example VII), the “potency as competitor compared with salmon or chicken II GnRHs” value is listed as “two-fold more potent” and the “potency as competitor for GnRH degradation by C-ase-1 compared with GnRH” value (shortened to “potency as competitor … compared with GnRH”) is on record as “three-fold less potent”.

As for `CCNC(=O)[C@@H]1CCCN1C(=O)[C@H](Cc1ccc(O)cc1)NC(=O)[C@H](Cc1c[nH]c2ccccc12)NC(=O)[C@@H](CCCNC(=N)N)NC(=O)[C@H](Cc1c[nH]cn1)NC(=O)[C@H](CO)NC(=O)[C@H](Cc1c[nH]c2ccccc12)NC(=O)[C@H](Cc1c[nH]cn1)NC(=O)[C@@H]1CCC(=O)N1` [D-Arg-chicken II GnRH-ethylamide, D-Arg (6)-chicken II GnRH-des-Gly (10)-ethylamide] ([pGlu]HWSH[dR]WYP-NHEt), in data set [2] (Example III), the inhibition constant Ki (usually the equilibrium dissociation constant of an inhibitor or competing ligand from its target) was over 0.2 µM.

`CCNC(=O)[C@@H]1CCCN1C(=O)[C@H](CCCNC(=N)N)NC(=O)[C@H](CC(C)C)NC(=O)[C@@H](CC(C)C)NC(=O)[C@H](Cc1ccc(O)cc1)NC(=O)[C@H](CO)NC(=O)[C@H](Cc1c[nH]c2ccccc12)NC(=O)[C@H](Cc1c[nH]cn1)NC(=O)[C@@H]1CCC(=O)N1` [MAMMALIAN D-LEU (6), EA (10), des-Gly^10, D-Leu^6-GnRH-ethylamide]: the “degradation by / competition” value in data set [1] was “potent competitive inhibitors”.

With `CC(C)C[C@H](NC(=O)[C@@H](COC(C)(C)C)NC(=O)[C@H](Cc1ccc(O)cc1)NC(=O)[C@H](CO)NC(=O)[C@H](Cc1c[nH]c2ccccc12)NC(=O)[C@H](Cc1cnc[nH]1)NC(=O)[C@@H]1CCC(=O)N1)C(=O)N[C@@H](CCCNC(=N)N)C(=O)N1CCC[C@H]1C(=O)NNC(N)=O` [ZOLADEX, Goserelin acetate], in the data set on pregnant baboons (in vivo), the abortions result is given as “not consistently effected” and the pregnancy outcome was “in most animals pregnancy outcomes were jeopardized”. Moreover, the CG and progesterone entry in the data set on pregnant baboons (vs saline controls) is listed as “decreased”.

Take `CCNC(=O)[C@@H]1CCCN1C(=O)[C@H](CCCNC(=N)N)NC(=O)[C@H](CC(C)C)NC(=O)[C@@H](Cc1c[nH]c2ccccc12)NC(=O)[C@H](Cc1ccc(O)cc1)NC(=O)[C@H](CO)NC(=O)[C@H](Cc1c[nH]c2ccccc12)NC(=O)[C@H](Cc1c[nH]cn1)NC(=O)[C@@H]1CCC(=O)N1` [^6D-Trp-GnRH-^10 ethylamide]: the “receptor activity/potency compared with GnRH” value in data set [3] is “twice as active”.

In the case of `CCNC(=O)[C@@H]1CCCN1C(=O)[C@H](CCCNC(=N)N)NC(=O)[C@H](CC(C)C)NC(=O)[C@@H](Cc1cn(Cc2ccccc2)cn1)NC(=O)[C@H](Cc1ccc(O)cc1)NC(=O)[C@H](CO)NC(=O)[C@H](Cc1c[nH]c2ccccc12)NC(=O)[C@H](Cc1cnc[nH]1)NC(=O)[C@@H]1CCC(=O)N1` [^6Im-btl-D-His-GnRH^10 ethylamide, des-Gly^10-Im-Btl-D-His^6-GnRH-ethylamide], the results for the “receptor activity/potency compared with GnRH” value in data set [3], in data set [3] (listed as 6Im-btl-D-His-GnRH-^10 ethylamide) and in data set [3] (listed as Im-Btl-His(6) analog) were “half the potency”, “half the potency” and “reduced receptor potency”, respectively. Also, the “degradation by / competition” value in data set [1] is “resistant to degradation”.

`CCNC(=O)[C@@H]1CCCN1C(=O)[C@H](Cc1ccc(O)cc1)NC(=O)[C@H](Cc1c[nH]c2ccccc12)NC(=O)CNC(=O)[C@H](Cc1c[nH]cn1)NC(=O)[C@H](CO)NC(=O)[C@H](Cc1c[nH]c2ccccc12)NC(=O)[C@H](Cc1c[nH]cn1)NC(=O)[C@@H]1CCC(=O)N1` [chicken II GnRH ethylamide, chicken II GnRH-^10 ethylamide] ([pGlu]HWSHGWYP-NHEt): the “receptor activity/potency compared with GnRH” value in data set [3] was 33 fold. In addition, the “stability in whole placental homogenates” value with placental homogenate is given as “more stable than the mammalian GnRH analogs”.

On to `NC(=O)CNC(=O)[C@@H]1CCCN1C(=O)[C@H](Cc1ccc(O)cc1)NC(=O)[C@H](Cc1c[nH]c2ccccc12)NC(=O)CNC(=O)[C@H](Cc1c[nH]cn1)NC(=O)[C@H](CO)NC(=O)[C@H](Cc1c[nH]c2ccccc12)NC(=O)[C@H](Cc1c[nH]cn1)NC(=O)[C@@H]1CCC(=O)N1` [chicken II GnRH] ([pGlu]HWSHGWYPG-NH2; C-terminus assumed), for which, in data set [3] (Buserelin label, Example II), the “receptor binding potency compared with chicken II GnRH isoform or Buserelin” value is “equipotent to Buserelin” and the “receptor binding potency compared with mammalian GnRH” value is “three-fold more potent”. The “stability in whole placental homogenates” value in the data set on placental homogenate was “more stable than the mammalian GnRH analogs”. Moreover, in data set [2] (Example III), the “degradation/competition relative to mammalian GnRH” value is reported as “one-sixth” and the Ki was 0.2 µM. Further, the “relative potency of inhibition … to GnRH” value in data set [2] is reported as 0.2.

For the compound `CCNC(=O)[C@@H]1CCCN1C(=O)[C@H](CCCNC(=N)N)NC(=O)[C@H](CC(C)C)NC(=O)CNC(=O)[C@H](Cc1ccc(O)cc1)NC(=O)[C@H](CO)NC(=O)[C@H](Cc1c[nH]c2ccccc12)NC(=O)[C@H](Cc1c[nH]cn1)NC(=O)[C@@H]1CCC(=O)N1` [des-Gly^10-GnRH-ethylamide] ([pGlu]HWSYGLRP-NHEt), the “degradation by / competition” value in data set [1] was “potent competitive inhibitors”.

Regarding `CC(C)C[C@H](NC(=O)[C@H](CO)NC(=O)[C@H](Cc1ccc(O)cc1)NC(=O)[C@H](Cc1c[nH]cn1)NC(=O)[C@@H]1CCC(=O)N1)C(=O)N[C@@H](CCC(=O)O)C(=O)N[C@@H](Cc1c[nH]c2ccccc12)C(=O)N[C@@H](CCCCN)C(=O)N1CCC[C@H]1C(=O)NCC(N)=O` [lamprey GnRH] ([pGlu]HYSLEWKPG-NH2), the “relative potency of inhibition … to GnRH” value in data set [2] was determined as 1.5. Moreover, the “potency as competitor … compared with GnRH” value in data set [2] (Example VII) is “as or even more potent than GnRH”.

Take `CC(C)C[C@H](NC(=O)[C@H](Cc1c[nH]c2ccccc12)NC(=O)CNC(=O)[C@H](Cc1ccc(O)cc1)NC(=O)[C@H](CO)NC(=O)[C@H](Cc1c[nH]c2ccccc12)NC(=O)[C@H](Cc1c[nH]cn1)NC(=O)[C@@H]1CCC(=O)N1)C(=O)N1CCC[C@H]1C(=O)NCC(N)=O` [salmon GnRH] ([pGlu]HWSYGWLPG-NH2): the “relative potency of inhibition … to GnRH” value in data set [2] is 0.2.

As to ^9OH-Pro-GnRH, in data set [2], the “relative potency of inhibition … to GnRH” value is listed as 1.5. Besides, the “potency as competitor … compared with GnRH” value in data set [2] (Example VII) is “as or even more potent than GnRH”.

For chicken II GnRH-^10 aza-Gly-amide, the “degradation by / competition” value in data set [1] is given as “resistant to degradation”.
